# Columns and labels:
# [1] = system: caspase-3; assay: Caspase activation immunoblot in SH-SY5Y cells; format: cell-based, human
# Source text: FIGS. 6A-B depict characterization of β-amyloid1-42. […] The β-amyloid was either directly reconstituted in Me2SO or was pre-treated with hexafluoroisopropanol (HFIP) and dessicated prior to reconstitution in Me2SO. […] Activated caspase-3 was detected using a rabbit polyclonal antibody from Cell Signaling (Danvers, Mass.).
# FIGS. 9A-B show changes in transglutaminase activity during β-amyloid-induced apoptosis. […] Experimental conditions in FIG. 9B were similar to those described in FIG. 9A, except cells were treated with H2O2 rather than BA for 24 hours.
# [2] = system: c-Jun kinase (JNK); assay: c-Jun kinase (JNK) activity in β-amyloid-treated cells; format: cell-based, human; settings: β-amyloid1-42-treated cells
# [3] = system: RA-differentiated SH-SY5Y cells; format: cell-based
# Protocol: (§1) To induce differentiation, human SH-SY5Y cells were cultured in phenol red-free, low serum media with 20 μM all-trans-retinoic acid (RA; Sigma) every other day for 6 days. When assaying cell viability, the cells were plated in 96-well dishes at a seeding density of approximately 5×10^3 cells per well, differentiated with 20 μM RA, and then treated with either media alone, 25 μM monodansyl cadaverine (MDC), β-amyloid1-42 (2.5, 5, and 10 μM) (HPLC-purified from American Peptide, Sunnyvale, Calif.), or with 25 μM MDC and different concentrations of β-amyloid1-42. Typically, β-amyloid1-42 was reconstituted in […] and then further diluted into cell culture media, using conditions that have been reported to give rise primarily to β-amyloid oligomers and large aggregates rather than fibrils (Dahlgren et al., J. Biol. Chem. 277:32046-32053 (2002); Stine et al., J. Biol. Chem. 278:11612-11622 (2003), which are hereby incorporated by reference in their entirety). However, in some cases, β-amyloid1-42 was first dissolved in 100% hexafluoroisopropanolol to ensure the elimination of any preexisting aggregates ((Dahlgren et al., J. Biol. Chem. 277:32046-32053 (2002); Stine et al., J. Biol. Chem. 278:11612-11622 (2003), which are hereby incorporated by reference in their entirety) and then this solvent was removed by evaporation prior to reconstituting the peptide in Me2SO. Cells were incubated with the reconstituted β-amyloid1-42 for 48 hours and cell viability was then assayed by the reduction of 3-(4,5-dimethylthiazole-2-yl)-2,5-diphenyltetrazolium bromide (MTT), as previously described in Miller et al., Brain Res. 963:43-56 (2003), which is hereby incorporated by reference in its entirety. The effects of H2O2 (10-30 μM) on cell viability were assayed in a similar manner (Tamagno et al., Exp Neurol 180:144-155 (2003), which is hereby incorporated by reference in its entirety). Values for untreated controls were set at 100% viability and each treatment was assessed as a percentage of the control values (+/−SD). Each treatment was performed in triplicate and evaluated by using a one-way analysis of variation (ANOVA) with Turkey's post hoc analysis to determine differences between the groups with the a value set at 0.05.
# [4] = target: T1, guinea pig liver TGase (Cavia cutleri, UniProt P08587); assay: In vitro transamidation (cross-linking) of β-amyloid1-42 by TGase, immunoblot; format: biochemical
# T1 construct: 0.1 μg of guinea pig liver TGase (Sigma); purchased Sigma; host or cells: guinea pig liver
# T1 sequence (P08587 2-690): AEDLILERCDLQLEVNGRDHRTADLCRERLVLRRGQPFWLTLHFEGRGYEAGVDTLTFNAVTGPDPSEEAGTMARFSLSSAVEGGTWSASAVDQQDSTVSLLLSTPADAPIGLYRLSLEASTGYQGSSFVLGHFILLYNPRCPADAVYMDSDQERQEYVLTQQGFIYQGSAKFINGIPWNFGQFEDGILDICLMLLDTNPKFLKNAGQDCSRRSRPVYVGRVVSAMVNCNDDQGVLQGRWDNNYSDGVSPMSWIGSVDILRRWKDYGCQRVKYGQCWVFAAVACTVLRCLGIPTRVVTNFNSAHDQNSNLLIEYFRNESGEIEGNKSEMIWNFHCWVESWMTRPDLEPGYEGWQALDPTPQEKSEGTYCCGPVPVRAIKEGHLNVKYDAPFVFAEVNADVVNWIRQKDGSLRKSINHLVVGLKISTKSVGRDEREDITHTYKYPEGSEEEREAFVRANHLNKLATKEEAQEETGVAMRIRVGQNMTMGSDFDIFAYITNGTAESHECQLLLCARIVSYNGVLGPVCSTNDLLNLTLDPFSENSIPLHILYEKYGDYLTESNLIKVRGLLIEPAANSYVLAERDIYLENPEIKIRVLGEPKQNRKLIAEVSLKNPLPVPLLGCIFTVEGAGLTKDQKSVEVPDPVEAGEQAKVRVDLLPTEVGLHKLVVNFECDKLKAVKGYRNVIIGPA
# Protocol: FIGS. 11A-B illustrate examination of the cross-linking of β-amyloid by TGase.
# The in vitro transamidation reactions were performed with one or all of the following: 1 μg of β-amyloid1-42, 0.1 μg of guinea pig liver TGase (Sigma), 500 μM CaCl2, and/or 50 μM MDC. Each reaction was performed in 50 mM Tris-HCl, pH 7.2, and incubated for 60 minutes at 37° C. The reactions were stopped by the addition of an equal volume of 20% SDS and 10 μl of Laemmeli's sample buffer and immediately boiled for 20 minutes to break up any non-covalent aggregation of β-amyloidi1-42. SDS-PAGE was performed on the samples, followed by blotting onto nitrocellulose membranes (Amersham). The membranes were immunoblotted with anti-β-amyloid antibody.
# [5] = system: TGase; assay: In vivo (cellular) transamidation assay with 5-(biotin-amido)-pentylamine; format: cell-based, human
# Protocol: The in vivo transamidation assays were performed as previously described in Antonyak et al., J. Biol. Chem. 279:41461-41467 (2004), which is hereby incorporated by reference in its entirety. […] The membranes were then incubated with horseradish-peroxidase-conjugated streptavidin (2 mg/ml; Pierce Inc., Rockford, Ill.) (diluted 1:2000) in BBST for 2 hours at room temperature, followed by washing (three times) for 20 minutes with BBST.
# [6] = system: SH-SY5Y cells; assay: Nuclear condensation or blebbing apoptosis assay; format: cell-based, human; settings: 5 μM β-amyloid1-42, 48 hours; compared to control cells
# Source text: Construction of the pcDNA3 Myc-tagged vector used herein has been described in Tu et al., J. Biol. Chem. 278:49293-49300 (2003), which is hereby incorporated by reference in its entirety. Insertion of the TGase cDNA into the vector was accomplished by performing BamHI and EcoRI restriction-site digestion of the previously generated pTRE TGase (wild-type) vector (Antonyak et al., J. Biol. Chem. 276:33582-33587 (2001), which is hereby incorporated by reference in its entirety) to excise the cDNA encoding wild-type TGase, followed by subcloning it into the pcDNA3 Myc-tagged vector using T4 DNA ligase (Invitrogen, Carlsbad, Calif.). The pcDNA3-Myc-TGase vector was used to generate the transamidation-defective (C277V) mutant with the Quikchange site-directed mutagenesis kit (Stratagene, La Jolla, Calif.). Each TGase construct was sequenced to confirm the presence or absence of the mutation. […]
# Immunofluorescence was also performed 48 hours after transient transfections with TGase constructs. […] Cells expressing the various TGase constructs were counted from three separate experiments (over 100 cells from each slide were scored) after β-amyloid1-42 treatment and the apoptotic rate was assessed relative to the percentage of apoptosis for untreated (transfected) cells. […]
# [7] = system: TGase; assay: TGase expression and level in SH-SY5Y cells and cell fractions (immunoblot); format: cell-based, human
# Protocol: as §1, with “Cells were incubated with the reconstituted β-amyloid1-42 for 48 hours and cell viability was then assayed by the reduction of 3-(4,5-dimethylthiazole-2-yl)-2,5-diphenyltetrazolium bromide (MTT), as previously described in Miller et al., Brain Res. 963:43-56 (2003), which is hereby incorporated by reference in its entirety. The effects of H2O2 (10-30 μM) on cell viability were assayed in a similar manner (Tamagno et al., Exp Neurol 180:144-155 (2003), which is hereby incorporated by reference in its entirety).” left out, “(+/-SD).” for “(+/−SD).”, “0.05. SH-SY5Y cells, treated with and without β-amyloid1-42 for 48 hours, were lysed by freeze/thawing using liquid nitrogen in a 0.25 M sucrose solution containing 1 mM dithiothreitol, 1 μg/ml aprotinin, 1 μg/ml leupeptin and 100 μM phenylmethylsulfonyl fluoride. […]” for “0.05.”
# [8] = H2O2 20 μM, 24 hours, RA-differentiated SH-SY5Y
# [9] = 2.5-10 μM β-amyloid1-42, 48 hours
molecule,measurement,setting,value
"CN(C)c1cccc2c(S(=O)(=O)NCCCCCN)cccc12 [MDC, monodansyl cadaverine]",effect of MDC on β-amyloid1-42 activation of caspases,[1]; β-amyloid1-42-treated cells,did not block
same,effect of MDC on β-amyloid1-42 stimulation of c-Jun kinase (JNK) activity,[2],did not block
same,"difference in cell viability in the presence or absence of MDC, 5 μM BA","[3]; 25 μM MDC, 5 μM BA, 48 hours, p=0.027",significant difference
same,"difference in cell viability in the presence or absence of MDC, 10 μM BA","[3]; 25 μM MDC, 10 μM BA, 48 hours, p=0.022",significant difference
same,effect of MDC on H2O2-induced cytotoxicity,[3]; [8],greatly enhanced cytotoxicity
same,TGase-catalyzed oligomerization (transamidation) of β-amyloid1-42,"[4]; 50 μM MDC, 0.1 μg TGase, 1 μg BA, 500 μM Ca2+, 60 minutes",completely eliminated
β-amyloid1-42: most abundant and naturally occurring form of β-amyloid; HPLC-purified from American Peptide,apoptotic response read out by caspase-3 activation,"[1]; oligomeric β-amyloid1-42, 37° C.",induced an apoptotic response
same,production of BPA conjugates (transamidation activity) in the membrane/particulate fractions,[5]; [9],marked enhancement
same,percentage of cells undergoing apoptosis,[6],increased
same,transamidation substrate for TGase in vitro,[4]; Ca2+ levels below 1 mM,effective transamidation substrate
same,levels of TGase in the membrane/particulate fractions,[7]; [9],dramatically increased
same,TGase expression,"[7]; β-amyloid1-42 48 hours, absence or presence of RA",no effect
"OO [H2O2, hydrogen peroxide]",caspase activation,"[1]; 30 μM H2O2, 24 hours, RA-differentiated SH-SY5Y",resulted in caspase activation
same,cytosolic transamidation activity,"[5]; H2O2, 24 hours",significant increase
same,reduction of cell viability,[3]; [8],30-40%
"CC1=C(/C=C/C(C)=C/C=C/C(C)=C/C(=O)O)C(C)(C)CCC1 [RA, all-trans-retinoic acid]",TGase expression,"[7]; 20 μM RA, SH-SY5Y in low serum media",significant up-regulation
